Data taken from patent publication US6955806B2, “Ionene polymers and their use as antimicrobial agents” (Genzyme Corporation, priority 2001, dated 2005).
Read-outs that look alike come from different tables or passages of the source.

Conditions: mouse, in vivo
Protocol: In vivo toxicity of the polymer of Formula II was assayed in mice. Groups of 5 animals were dosed twice daily for 5 days by oral gavage at a dose of 10, 100, or 500 mg/kg body weight. Animals were assessed daily, and deaths were recorded. The dose at which ½ the animals died was considered the LD50.

Poly(4,4′-trimethylenebis(1-methylpiperidinium)-alt-1,8-octane) [Formula II]
tolerability in 5-day oral toxicity study (10 mg/kg/day): well tolerated
tolerability in 5-day oral toxicity study (100 mg/kg/day): moderate toxicity was evident
